This is an account of results in ChEMBL document CHEMBL3808281, “Investigation of the Structure-Activity Relationships of Aza-A-Ring Indenoisoquinoline Topoisomerase I Poisons” (J Med Chem, 2016).

Experiment [1] has as its target Tyrosyl-DNA phosphodiesterase 1 (Homo sapiens, UniProt Q9NUW8).
Description: Inhibition of recombinant TDP1 (unknown origin) using single stranded 5'-[32P]-labeled DNA containing 3'-phosphotyrosine as substrate after 15 mins by PAGE
Experiment [2] addresses T1, Tyrosyl-DNA phosphodiesterase 2 (Homo sapiens, UniProt O95551).
T1 sequence (O95551 whole entry): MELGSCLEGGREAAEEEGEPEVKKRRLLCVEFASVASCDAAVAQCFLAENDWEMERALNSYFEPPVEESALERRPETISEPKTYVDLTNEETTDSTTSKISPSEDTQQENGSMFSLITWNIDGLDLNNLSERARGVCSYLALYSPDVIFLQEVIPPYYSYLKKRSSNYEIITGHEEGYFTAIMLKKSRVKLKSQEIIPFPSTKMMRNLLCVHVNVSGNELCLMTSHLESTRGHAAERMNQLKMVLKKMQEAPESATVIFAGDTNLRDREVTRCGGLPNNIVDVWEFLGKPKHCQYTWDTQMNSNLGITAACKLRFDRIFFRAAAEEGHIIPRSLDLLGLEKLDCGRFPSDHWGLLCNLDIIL
Description: Inhibition of human recombinant TDP2 using 19-mer single stranded DNA containing 5'-phosphotyrosine as substrate after 15 mins by PAGE

Experiment [3] concerns the target T2, DNA topoisomerase 1 (Homo sapiens) (UniProt P11387).
T2 sequence (whole entry): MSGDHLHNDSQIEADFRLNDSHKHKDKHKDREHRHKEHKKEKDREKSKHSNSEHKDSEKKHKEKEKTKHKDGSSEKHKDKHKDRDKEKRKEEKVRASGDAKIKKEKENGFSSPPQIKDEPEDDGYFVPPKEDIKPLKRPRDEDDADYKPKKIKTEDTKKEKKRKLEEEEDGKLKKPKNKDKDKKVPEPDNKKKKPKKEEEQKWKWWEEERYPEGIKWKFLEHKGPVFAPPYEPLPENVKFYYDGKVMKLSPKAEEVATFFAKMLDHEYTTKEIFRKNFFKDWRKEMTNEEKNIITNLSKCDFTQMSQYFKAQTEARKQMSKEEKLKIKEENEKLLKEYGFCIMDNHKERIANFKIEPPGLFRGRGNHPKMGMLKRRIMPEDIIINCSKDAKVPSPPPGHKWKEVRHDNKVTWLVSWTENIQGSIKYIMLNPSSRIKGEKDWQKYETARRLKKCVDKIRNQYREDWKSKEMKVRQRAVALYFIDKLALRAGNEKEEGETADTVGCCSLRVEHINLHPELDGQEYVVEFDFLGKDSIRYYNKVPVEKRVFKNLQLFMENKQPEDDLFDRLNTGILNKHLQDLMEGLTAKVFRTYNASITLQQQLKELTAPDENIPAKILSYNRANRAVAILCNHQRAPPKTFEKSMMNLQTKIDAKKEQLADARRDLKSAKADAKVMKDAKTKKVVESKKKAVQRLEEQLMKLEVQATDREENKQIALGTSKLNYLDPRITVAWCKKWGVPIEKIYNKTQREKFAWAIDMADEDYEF
Nature of the experiment: Activity at recombinant top1 (unknown origin) assessed as DNA cleavage using 3'-[32P]-labeled 117-bp DNA as substrate at 0.1 to 100 uM after 20 mins by SDS-PAGE.

A short description of experiment [4]: Cytotoxicity against human NCI60 cells assessed as cell growth at 10 uM after 48 hrs. To be noted: NCI60, 48 h, read-out: Activity. The experiment is classed as functional.
Experiment [5] in a line: Antiproliferative activity against human OVCAR3 cells after 48 hrs. The format is functional. Particulars: OVCAR-3, 48 h.
A short description of experiment [6]: Antiproliferative activity against human NCI60 cells after 48 hrs. The format is functional. To be noted: NCI60, 48 h.
Experiment [7] in a line: Antiproliferative activity against human SF539 cells after 48 hrs. The format is functional. Particulars: SF-539, 48 h.
Experiment [8] can be described thus: Antiproliferative activity against human DU145 cells after 48 hrs. The experiment is classed as functional. To be noted: DU-145, 48 h.
Another experiment has as its system MCF7. Nature of the experiment: Antiproliferative activity against human MCF7 cells after 48 hrs. The experiment is classed as functional. Particulars: MCF7, 48 h.
For a further experiment, the system named is SN12C. Nature of the experiment: Antiproliferative activity against human SN12C cells after 48 hrs. The format is functional.
Experiment [9] in a line: Antiproliferative activity against human HCT116 cells after 48 hrs. The format is functional. To be noted: HCT-116, 48 h.
The nature of experiment [10]: Antiproliferative activity against human UACC62 cells after 48 hrs. The format is functional. To be noted: UACC-62, 48 h.
Experiment [11] can be described thus: Antiproliferative activity against human HOP62 cells after 48 hrs. The experiment is classed as functional. To be noted: HOP-62, 48 h.

As a reminder, the IC50 is the concentration that inhibits the measured activity by half. Higher therefore signals weaker potency. By GI50 is commonly meant the concentration that inhibits growth by half.

Chain of Tyrosyl-DNA phosphodiesterase 1 (Q9NUW8 whole entry): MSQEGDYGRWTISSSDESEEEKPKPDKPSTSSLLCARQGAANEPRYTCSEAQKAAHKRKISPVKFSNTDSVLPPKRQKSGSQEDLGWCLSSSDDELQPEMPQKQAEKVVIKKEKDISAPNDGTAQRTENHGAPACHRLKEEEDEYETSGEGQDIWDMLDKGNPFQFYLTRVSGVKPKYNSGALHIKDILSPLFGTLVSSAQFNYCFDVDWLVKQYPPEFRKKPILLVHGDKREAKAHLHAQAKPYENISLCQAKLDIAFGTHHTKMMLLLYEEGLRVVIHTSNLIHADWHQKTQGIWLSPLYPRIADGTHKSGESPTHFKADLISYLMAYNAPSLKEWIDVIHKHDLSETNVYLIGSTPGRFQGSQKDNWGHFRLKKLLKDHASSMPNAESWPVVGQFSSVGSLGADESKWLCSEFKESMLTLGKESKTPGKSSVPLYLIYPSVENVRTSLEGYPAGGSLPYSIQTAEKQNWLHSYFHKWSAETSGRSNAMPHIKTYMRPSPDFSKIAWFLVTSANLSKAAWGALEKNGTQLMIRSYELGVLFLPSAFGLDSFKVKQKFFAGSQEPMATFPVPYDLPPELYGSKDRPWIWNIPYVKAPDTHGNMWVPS

With `O=C1c2ccccc2-c2c1c1ccncc1c(=O)n2C[C@H](O)CO`, the IC50 in experiment [1] and in [2] was above 111000 nM each time. Moreover, in experiment [3], the Activity is 50%.
Regarding `O=C1c2ccccc2-c2c1c1ccncc1c(=O)n2CCCn1ccnc1`, in experiment [4], the growth at 10 µM was found to be 47.5%.
With `CC[C@@]1(O)C(=O)OCc2c1cc1n(c2=O)Cc2cc3ccccc3nc2-1` [CAMPTOTHECIN], it took 220 nM to inhibit growth in [5] by half (GI50).
In turn, `NCCCn1c2c(c3ccncc3c1=O)C(=O)c1ccccc1-2` displayed an IC50 in [2] of 111000 nM. Besides, the Activity in experiment [3] was determined as 0%.
Turning to `O=C1c2ccccc2-c2c1c1cnccc1c(=O)n2C[C@H](O)CO`, in [4], the growth at 10 µM amounted to 85.5%. In experiment [3], the Activity came out at 20%.
As for `O=C1c2ccccc2-c2c1c1ccccc1c(=O)n2CCCN1CCOCC1`, the GI50 in [6] amounted to 15100 nM. Moreover, the Activity in [3] turned out to be 50%.
On to `O=C1c2ccccc2-c2c1c1ncccc1c(=O)n2CCCN1CCOCC1`, for which the growth at 10 µM in experiment [4] was 87.9%. Also, the Activity in experiment [3] is 50%.
Regarding `O=C1c2ccccc2-c2c1c1cnccc1c(=O)n2CCCN1CCOCC1`, the Activity in [3] came out at 75%.
Take `O=C1c2ccccc2-c2c1c1ncccc1c(=O)n2CCCn1ccnc1`: in experiment [4], the growth at 10 µM was found to be 83.6%. For the same molecule, the Activity in experiment [3] was found to be 50%.
On to `O=C1c2ccccc2-c2c1c1ccccc1c(=O)n2C[C@H](O)CO`, for which the GI50 in experiment [6] amounted to 8710 nM. Further, in experiment [3], the Activity was 75%.
Take `CN(C)CCCn1c2c(c3cccnc3c1=O)C(=O)c1ccccc1-2`: the concentration for 50% growth inhibition (GI50) in [7] is 851 nM; in experiment [8], 1910 nM; in the experiment with MCF7, 363 nM; in the experiment on SN12C, 1120 nM; in experiment [9] it was 437 nM; in [10], 1290 nM. The GI50 came out at 1260 nM in experiment [11] and 2400 nM in experiment [5]. Besides, in [4], the growth at 10 µM worked out at 5.45%. In addition, in experiment [1], it took 111000 nM to reach half-maximal inhibition (IC50). Further, the Activity in [3] is 75%.
`O=C1c2ccccc2-c2c1c1cccnc1c(=O)n2C[C@H](O)CO`: the growth at 10 µM in experiment [4] turned out to be 61.7%. Further, the Activity in experiment [3] worked out at 20%.
Consider `NCCCn1c2c(c3cccnc3c1=O)C(=O)c1ccccc1-2`, for which the GI50 stood at 1380 nM in [7]; 1910 nM in [8]; 417 nM with MCF7; 1120 nM with SN12C; 537 nM in experiment [9]; 1350 nM in experiment [10]. For the same molecule, the results for the GI50 in experiment [11] and in [5] were 1450 nM and 2290 nM, respectively. Further, the growth at 10 µM in [4] amounted to 12.2%. For the same molecule, the Activity in experiment [3] was found to be 50%.
For the molecule `NCCCn1c2c(c3ccccc3c1=O)C(=O)c1ccccc1-2`, halving of growth in [6] (GI50) required 320 nM. The Activity in experiment [3] was 75%.
Consider `O=C1c2ccccc2-c2c1c1ncccc1c(=O)n2C[C@H](O)CO`, for which, in experiment [3], the Activity is 20%.
Consider `O=C1c2ccccc2-c2c1c1cnccc1c(=O)n2CCCn1ccnc1`, for which the growth at 10 µM in experiment [4] came out at 67.8%. The Activity in experiment [3] worked out at 50%.
On to `NCCCn1c2c(c3cnccc3c1=O)C(=O)c1ccccc1-2`, for which, in experiment [2], the IC50 is 111000 nM. Besides, the Activity in experiment [3] is 50%.
As to `O=C1c2ccccc2-c2c1c1cccnc1c(=O)n2CCCn1ccnc1`, the growth at 10 µM in [4] was found to be 49.6%. Besides, the Activity in [3] was determined as 75%.
For `CN(C)CCCn1c2c(c3ccccc3c1=O)C(=O)c1ccccc1-2`, in [3], the Activity was 75%.
For `CN(C)CCCn1c2c(c3ncccc3c1=O)C(=O)c1ccccc1-2`, the growth at 10 µM in experiment [4] worked out at 44.4%. In addition, the Activity in experiment [3] worked out at 50%.
For the molecule `NCCCn1c2c(c3ncccc3c1=O)C(=O)c1ccccc1-2`, in experiment [3], the Activity amounted to 50%.
Regarding `O=C1c2ccccc2-c2c1c1cccnc1c(=O)n2CCCN1CCOCC1`, the growth at 10 µM in experiment [4] is 42.9%. In addition, the Activity in [3] stood at 75%.
Consider `CN(C)CCCn1c2c(c3ccncc3c1=O)C(=O)c1ccccc1-2`, for which the GI50 is 977 nM in [8]; 331 nM with MCF7; 955 nM in the experiment on SN12C; 380 nM in experiment [9]; 1230 nM in [10]; 871 nM in experiment [11]. The molecule further had a concentration for 50% growth inhibition (GI50) in [5] of 2000 nM.
With `CN(C)CCCn1c2c(c3cnccc3c1=O)C(=O)c1ccccc1-2`, the GI50 in [7] stood at 380 nM; in experiment [8] it was 490 nM; in the experiment with MCF7, 245 nM; with SN12C, 288 nM; in experiment [9], 245 nM; in experiment [10], 309 nM. For the same molecule, the GI50 came to 398 nM in [11] and 1100 nM in experiment [5]. For the same molecule, the growth at 10 µM in experiment [4] was -8.83%. In addition, the Activity in experiment [3] stood at 50%.
With `O=C1c2ccccc2-c2c1c1ccccc1c(=O)n2CCCn1ccnc1`, in experiment [6], the GI50 turned out to be 1860 nM. In addition, the Activity in experiment [3] was determined as 100%.
